Measured values reported in US20230226212A1, “MUSCLE-TARGETING COMPLEXES AND USES THEREOF” (Dyne Therapeutics, Inc., priority 2020, published 2023).
pKd: −log10 of the molar value. Where two headings read alike, the source gives them in different places.

Legend:
[1] = tested on: DMPK; experiment: DMPK knockdown by unconjugated PMOs in primary human myotubes (Example 23); type: cell-based; details: unconjugated PMO; 3 days; qPCR
Description: Additional DMPK targeting oligonucleotides (PMOs) were designed and tested for their activity in reducing DMPK expression in primary human myotubes. Wild-type primary myoblasts were cultured in PromoCell Skeletal Muscle growth medium with 5% FBS and penicillin/streptomycin until nearly confluent. Cells were then seeded into a 96 well plate at 50000 cells per well and allowed to recover for 24 hours. Cells were then differentiated in a differentiation medium of DMEM with glutamine and penicillin/streptomycin for 7 days. Cells were then treated with the unconjugated PMO for 3 days. Total RNA was collected from cells, cDNA was synthesized and DMPK expression was measured by qPCR.

[2] = tested on: DMPK; experiment: DMPK expression in DM1 myotubes (Example 15); type: cell-based; details: dose-responsive
From the text: (§1) The antisense oligonucleotides were further assessed to identify oligos that are safe in vivo (e.g., as indicated by low immunogenicity as measured by cytokine induction), and further based on manufacturability and secondary structure considerations. Three antisense oligonucleotides, […] (SEQ ID NO: 329, DMPK-ASO-1), […] (SEQ ID NO: 330, DMPK-ASO-2), and […] (SEQ ID NO: 331, DMPK-ASO-3) were selected. These oligonucleotides were then further evaluated for their ability to reduce DMPK expression in DM1 myotubes and NHP myotubes in a dose-responsive manner. The tool compound control DMPK-ASO was used as control.

[3] = tested on: DMPK; experiment: DMPK transcript knockdown by oligonucleotides in RD cells (Example 21); type: cell-based; details: free or transfected oligonucleotide, 3 days, relative to PBS-treated cells
Description: DMPK-targeting oligonucleotides (e.g., ASO) were tested in rhabdomyosarcoma (RD) cells for knockdown of DMPK transcript expression. RD cells were cultured in a growth medium of DMEM with glutamine, supplemented with 10% FBS and penicillin/streptomycin until nearly confluent. Cells were then seeded into a 96 well plate at 20 K cells per well and were allowed to recover for 24 hours. Cells were then treated with free DMPK-targeting oligonucleotides or by transfection of the oligonucleotides using 0.3 µL per well of Lipofectamine MessengerMAX transfection reagent. After 3 days, total RNA was collected from cells, cDNA was synthesized and DMPK expression was measured by qPCR.

[4] = tested on: DMPK; experiment: DMPK expression in NHP myotubes (Example 15); type: cell-based; details: dose-responsive
From the text: as §1

[5] = target: human transferrin receptor 1 (human) (UniProt P02786); experiment: Carterra LSA biosensor, IgG captured on anti-IgG lawn, hTfR1 injected, 25C, 1:1 fit
[6] = tested on: DUX4; experiment: expression of downstream DUX4 genes in U-2 OS cells (Example 12); type: cell-based, human; details: 72 hours
Description: Human U-2 OS cells were dosed with the complex. Briefly, U-2 OS cells were seeded at a density of 10 k cells/well before being allowed to recover overnight. […] Cells were incubated for 72 hours before being harvested for total RNA. cDNA was then synthesized from the total RNA extracts and qPCR was performed to determine expression of downstream DUX4 genes (ZSCAN4, MBD3L2, TRIM43) in technical quadruplicate. All qPCR data were analyzed using a standard ΔΔCT method and were normalized to a plate-based negative control comprised of untreated cells (i.e., without any oligonucleotide). Results were then converted to fold change to evaluate efficacy.

[7] = tested on: DUX4; experiment: expression of DUX4-associated genes in FSHD patient-derived myotubes (Example 26); type: cell-based
Description: FSHD patient-derived myotubes were treated with FM-10 conjugated to an anti-TfRl Fab or naked FM-10. FM-10 has the sequence 5′-[…]-3′ (SEQ ID NO: 260). Expression of mRNA transcribed from three genes known to be only expressed following DUX4 activation was subsequently measured in the myotubes. Expression of these three DUX4-associated genes was reduced, as shown in FIG. 41A (naked oligonucleotide) and 41B (Ab-oligonucleotide).

[8] = tested on: mdx mice; experiment: open field chamber with hind limb fatigue challenge in mdx mice (Example 14); type: in vivo, mouse; details: single i.v. dose 30 mg/kg, two weeks after injection, hind limb fatigue challenge between stages
Description: (§2) Each experimental condition was replicated in five mdx mice. Five wild-type mice (healthy mice) were also dosed with vehicle control (saline).
Two weeks after injection, the functional activity of all treated mice was determined using an open field chamber experiment. The experiment involved three consecutive stages: (1) a 10-minute period during which each mouse was placed into an open field chamber; (2) a 10-minute period during which each mouse was subjected to a hind limb fatigue challenge; and (3) a 10-minute period during which each mouse was placed into an open field chamber. The total horizontal distances traveled during stages (1) and (3) were collected. The percent change in the total distance traveled between the first and second tests.

[9] = tested on: creatine kinase; experiment: creatine kinase activity levels in mdx mice (Example 14); type: in vivo, mouse; details: single i.v. dose 30 mg/kg, two and four weeks after injection
Description: as §2
All mice in this Example were further tested for creatine kinase activity levels two weeks and four weeks after injection.

[10] = tested on: mdx mice; experiment: cage running wheel test in mdx mice (Example 14); type: in vivo, mouse; details: single i.v. dose 30 mg/kg, four weeks after injection, 24-hour period
Description: as §2
Four weeks after injection, the activity of all treated mice was determined using a cage running wheel test. Each mouse was individually placed into cages with a running wheel for a 24-hour period. The 24-hour period involved five hours of light on followed by thirteen hours of darkness, and ending with six hours of light. The total distance traveled (in meters, m) by each mouse on the running wheel was continuously collected throughout the 24-hour period and subsequently binned into discrete one-hour increments.

Chain of human transferrin receptor 1 (human) (P02786 89-760 limits assumed): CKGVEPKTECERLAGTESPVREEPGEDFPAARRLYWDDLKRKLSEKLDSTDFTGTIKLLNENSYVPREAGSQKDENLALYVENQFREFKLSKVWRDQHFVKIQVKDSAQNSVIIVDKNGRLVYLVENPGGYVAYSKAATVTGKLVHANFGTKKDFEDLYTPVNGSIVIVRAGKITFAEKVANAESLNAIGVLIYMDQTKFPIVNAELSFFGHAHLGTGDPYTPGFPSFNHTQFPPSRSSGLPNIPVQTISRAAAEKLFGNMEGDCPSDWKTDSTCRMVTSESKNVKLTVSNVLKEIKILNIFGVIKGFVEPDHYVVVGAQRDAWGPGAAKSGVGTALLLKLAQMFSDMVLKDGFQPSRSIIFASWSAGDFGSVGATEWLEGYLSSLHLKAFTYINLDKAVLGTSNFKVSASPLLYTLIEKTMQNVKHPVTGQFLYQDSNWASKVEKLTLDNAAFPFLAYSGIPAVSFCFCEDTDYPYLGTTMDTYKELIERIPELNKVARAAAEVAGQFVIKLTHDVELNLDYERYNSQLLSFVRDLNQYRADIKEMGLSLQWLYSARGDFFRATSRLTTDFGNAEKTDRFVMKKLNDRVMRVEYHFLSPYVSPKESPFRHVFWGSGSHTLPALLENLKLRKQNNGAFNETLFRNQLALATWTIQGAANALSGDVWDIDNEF

In the case of “GAGAAGGAAATAAGACCCAGTT (SEQ ID NO: 311) (all phosphorodiamidate morpholino (PMO)) [PMO 3, DMPK-targeting PMO, intron 1-2]”, the “% DMPK Knockdown in Primary Human Myotubes” value (from here on “% DMPK Knockdown”) [1] was 14%.
For “CCTTCTCTCTGCCTCTCAGCTT (SEQ ID NO: 312) (all phosphorodiamidate morpholino (PMO)) [PMO 4, DMPK-targeting PMO, intron 1-2]”, the “% DMPK Knockdown” value [1] was 58%.
In the case of “TGGAGGGCCTTTTATTCGCGAGG (SEQ ID NO: 323) (all phosphorodiamidate morpholino (PMO)) [PMO 15, DMPK-targeting PMO, polyA]”, the “% DMPK Knockdown” value [1] was 66%.
For “CCCAGCGCCCACCAGUCACA (SEQ ID NO: 330) (chemistry not given here) [DMPK-ASO-2, DMPK-targeting antisense oligonucleotide]”, the “reduction of DMPK expression in DM1 myotubes” value (“reduction … in DM1 myotubes” below) [2] was “dose-dependently reducing DMPK”, the DMPK expression level [3] was “reduced” and the “reduction of DMPK expression in NHP myotubes” value (“reduction … in NHP myotubes” for short) [4] was “dose-dependently reducing DMPK”.
“anti-TfR1 antibody OKT9 (mouse IgG, control)” was tested, and the pKd [5] was 9.27 and the kon [5] was 774000 M⁻¹ s⁻¹.
For “AGGTACTGAGAAGGGTTCGTC (SEQ ID NO: 319) (all phosphorodiamidate morpholino (PMO)) [PMO 11, DMPK-targeting PMO, Exon 5]”, the “% DMPK Knockdown” value [1] was 40%.
With “GCCTAGGGACCTGCGGGAGAG (SEQ ID NO: 321) (all phosphorodiamidate morpholino (PMO)) [PMO 13, DMPK-targeting PMO, Exon 15]” the “% DMPK Knockdown” value [1] was 62%.
For “CAGGTGACAGTTCAGGTGCAG (SEQ ID NO: 309) (all phosphorodiamidate morpholino (PMO)) [PMO 1, DMPK-targeting PMO, intron 1-2]”, the “% DMPK Knockdown” value [1] was 59%.
With “GGGCATTTTAATATATCTCTGAACT (SEQ ID NO: 260) (PMO chemistry, chemistry not fully specified) [naked FM10, phosphorodiamidate morpholino oligomer (PMO) targeting DUX4]” the “ZSCAN4, MBD3L2, and TRIM43 expression” value ([6]; 1 µM) was “fails to reduce”, the MDB3L2 expression ([6]; 10 µM) was “no effect” and the “ZSCAN4 and TRIM43 expression” value ([6]; 10 µM) was “modest reduction”. The “expression of three DUX4-associated genes” value [7] was “reduced”, the IC50 ([7]; MBD3L2 transcript, read-out: IC50 (nM), MBD3L2) was 1210 nM and the IC50 ([7]; TRIM43 transcript, read-out: IC50 (nM), TRIM43) was 1120 nM. It also gave an IC50 ([7]; ZSCAN4 transcript, read-out: IC50 (nM), ZSCAN4) of 643 nM.
With “TCCACCCTGACTCCAGGTGAC (SEQ ID NO: 310) (all phosphorodiamidate morpholino (PMO)) [PMO 2, DMPK-targeting PMO, intron 1-2]” the “% DMPK Knockdown” value [1] was 16%.
With “CGGAGCTCACCAGGTAGTTCT (SEQ ID NO: 325) (all phosphorodiamidate morpholino (PMO)) [PMO 40, DMPK-targeting PMO, Intron 4-5]” the “% DMPK Knockdown” value [1] was 73%.
With “GGCCAAACCUCGGCUUACCUGAAAU (SEQ ID NO: 261) (PMO chemistry, chemistry not fully specified) [MDX-ASO, naked exon 23 skipping PMO ASO]” the “average less distance traveled during stage (3) relative to stage (1), open field” value [8] was “about 85%”, the creatine kinase activity [9] was “no significant benefit” and the “distance traveled on running wheel during the dark period” value [10] was “traveled considerably shorter distances”.
“GCCTTTTATTCGCGAGGGTCGG (SEQ ID NO: 322) (all phosphorodiamidate morpholino (PMO)) [PMO 14, DMPK-targeting PMO, polyA]” was tested, and the “% DMPK Knockdown” value [1] was 73%.
For “GCGUAGAAGGGCGUCUGCCC (SEQ ID NO: 329) (chemistry not given here) [DMPK-ASO-1, DMPK-targeting antisense oligonucleotide]”, the “reduction … in DM1 myotubes” value [2] was “dose-dependently reducing DMPK”, the DMPK expression level [3] was “reduced” and the “reduction … in NHP myotubes” value [4] was “dose-dependently reducing DMPK”.
With “CCAUCUCGGCCGGAAUCCGC (SEQ ID NO: 331) (chemistry not given here) [DMPK-ASO-3, DMPK-targeting antisense oligonucleotide]” the “reduction … in DM1 myotubes” value [2] was “dose-dependently reducing DMPK”, the DMPK expression level [3] was “reduced” and the “reduction … in NHP myotubes” value [4] was “dose-dependently reducing DMPK”.
With “TAGGGACCTGCGGAGAGGGCGA (SEQ ID NO: 320) (all phosphorodiamidate morpholino (PMO)) [PMO 12, DMPK-targeting PMO, Exon 15]” the “% DMPK Knockdown” value [1] was 35%.
“TCCGCTGGGTGGTGGGAAAAGAA (SEQ ID NO: 314) (all phosphorodiamidate morpholino (PMO)) [PMO 6, DMPK-targeting PMO, Exon 2]” was tested, and the “% DMPK Knockdown” value [1] was 9%.
With “CCACCCTCTGTCTGTCTCC (SEQ ID NO: 313) (all phosphorodiamidate morpholino (PMO)) [PMO 5, DMPK-targeting PMO, intron 1-2]” the “% DMPK Knockdown” value [1] was 64%.
In the case of “AGGGCAGTGCTTACCTGAGGG (SEQ ID NO: 326) (all phosphorodiamidate morpholino (PMO)) [PMO 41, DMPK-targeting PMO, Intron 9-10]”, the “% DMPK Knockdown” value [1] was 57%.
In the case of “TAGGCACTCACCCACTGCAAGA (SEQ ID NO: 324) (all phosphorodiamidate morpholino (PMO)) [PMO 39, DMPK-targeting PMO, Exon 1]”, the “% DMPK Knockdown” value [1] was 69%.
In the case of “ATGGGCTCCGCTGGGTGGTGG (SEQ ID NO: 315) (all phosphorodiamidate morpholino (PMO)) [PMO 7, DMPK-targeting PMO, Exon 2]”, the “% DMPK Knockdown” value [1] was 11%.
In the case of “ACGATGGGCTCCGCTGGG (SEQ ID NO: 316) (all phosphorodiamidate morpholino (PMO)) [PMO 8, DMPK-targeting PMO, Exon 2]”, the “% DMPK Knockdown” value [1] was 60%.
With “ATGACCAGGTACTGAGAAGGG (SEQ ID NO: 318) (all phosphorodiamidate morpholino (PMO)) [PMO 10, DMPK-targeting PMO, Exon 5]” the “% DMPK Knockdown” value [1] was 33%.
“CCATCCTTGGGCAGAGACCT (SEQ ID NO: 317) (all phosphorodiamidate morpholino (PMO)) [PMO 9, DMPK-targeting PMO, Intron 4-5]” was tested, and the “% DMPK Knockdown” value [1] was 41%.
